ChEMBL document CHEMBL2417402, “Development and therapeutic implications of selective histone deacetylase 6 inhibitors” (J Med Chem, 2013)
Each block holds one molecule with its values, some of them ahead of it.

Tests used:
[1] = biological target: Histone deacetylase 4 (Homo sapiens, UniProt P56524); test: Inhibition of HDAC4 (unknown origin)
[2] = biological target: T1, Histone deacetylase 2 (Homo sapiens, UniProt Q92769); test: Inhibition of HDAC2 (unknown origin)
[3] = biological target: T2, Histone deacetylase 1 (Homo sapiens, UniProt Q13547); test: Inhibition of HDAC1 (unknown origin)
T2 sequence (Q13547 whole entry): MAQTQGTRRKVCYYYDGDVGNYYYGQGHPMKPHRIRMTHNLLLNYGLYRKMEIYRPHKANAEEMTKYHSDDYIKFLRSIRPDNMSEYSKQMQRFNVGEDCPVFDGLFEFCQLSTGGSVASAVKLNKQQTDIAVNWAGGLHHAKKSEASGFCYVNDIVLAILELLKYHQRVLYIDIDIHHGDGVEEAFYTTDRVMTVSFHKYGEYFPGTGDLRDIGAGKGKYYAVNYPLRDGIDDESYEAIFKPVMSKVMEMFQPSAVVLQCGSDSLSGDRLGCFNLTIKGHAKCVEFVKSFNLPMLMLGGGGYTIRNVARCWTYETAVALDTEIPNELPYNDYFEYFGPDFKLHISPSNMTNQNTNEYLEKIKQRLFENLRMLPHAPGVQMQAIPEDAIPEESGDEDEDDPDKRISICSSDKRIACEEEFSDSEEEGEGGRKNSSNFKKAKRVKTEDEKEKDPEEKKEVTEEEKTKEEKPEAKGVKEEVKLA

[4] = biological target: T3, Protein deacetylase HDAC6 (Homo sapiens, UniProt Q9UBN7); test: Inhibition of HDAC6 (unknown origin)
T3 sequence (Q9UBN7 whole entry): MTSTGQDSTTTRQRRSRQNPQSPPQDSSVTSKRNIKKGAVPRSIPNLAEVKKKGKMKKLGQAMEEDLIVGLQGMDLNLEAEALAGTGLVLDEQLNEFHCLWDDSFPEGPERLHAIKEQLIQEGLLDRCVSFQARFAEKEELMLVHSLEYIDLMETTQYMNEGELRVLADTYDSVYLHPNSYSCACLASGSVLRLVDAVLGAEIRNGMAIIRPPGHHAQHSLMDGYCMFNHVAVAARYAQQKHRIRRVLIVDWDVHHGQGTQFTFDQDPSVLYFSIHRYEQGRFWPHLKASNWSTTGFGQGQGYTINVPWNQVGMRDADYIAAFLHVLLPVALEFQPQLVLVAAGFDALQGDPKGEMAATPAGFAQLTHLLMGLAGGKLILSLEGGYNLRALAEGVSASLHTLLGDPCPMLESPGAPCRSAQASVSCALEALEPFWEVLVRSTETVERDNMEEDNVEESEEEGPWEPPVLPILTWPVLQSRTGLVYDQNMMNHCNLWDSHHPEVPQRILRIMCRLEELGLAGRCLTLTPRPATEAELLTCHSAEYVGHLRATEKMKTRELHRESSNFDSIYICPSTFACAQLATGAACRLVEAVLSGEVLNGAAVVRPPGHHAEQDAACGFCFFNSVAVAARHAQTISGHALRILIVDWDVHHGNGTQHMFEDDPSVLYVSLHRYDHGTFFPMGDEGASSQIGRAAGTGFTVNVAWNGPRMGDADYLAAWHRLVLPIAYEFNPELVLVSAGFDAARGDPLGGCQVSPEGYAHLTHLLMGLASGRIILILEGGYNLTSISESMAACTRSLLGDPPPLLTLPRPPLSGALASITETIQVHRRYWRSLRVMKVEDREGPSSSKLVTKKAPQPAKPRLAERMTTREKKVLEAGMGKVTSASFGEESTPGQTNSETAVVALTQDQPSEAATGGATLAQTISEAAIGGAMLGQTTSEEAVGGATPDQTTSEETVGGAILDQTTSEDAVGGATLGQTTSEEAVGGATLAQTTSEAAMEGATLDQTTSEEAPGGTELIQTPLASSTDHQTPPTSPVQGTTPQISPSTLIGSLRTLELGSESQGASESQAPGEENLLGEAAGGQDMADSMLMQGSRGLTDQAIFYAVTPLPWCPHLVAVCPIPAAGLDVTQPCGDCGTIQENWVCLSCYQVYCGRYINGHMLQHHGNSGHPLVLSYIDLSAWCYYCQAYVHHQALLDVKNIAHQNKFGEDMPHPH

[5] = biological target: Histone deacetylase 5 (Homo sapiens, UniProt Q9UQL6); test: Inhibition of HDAC5 (unknown origin)
Histone deacetylase 5, sequence (Q9UQL6 whole entry): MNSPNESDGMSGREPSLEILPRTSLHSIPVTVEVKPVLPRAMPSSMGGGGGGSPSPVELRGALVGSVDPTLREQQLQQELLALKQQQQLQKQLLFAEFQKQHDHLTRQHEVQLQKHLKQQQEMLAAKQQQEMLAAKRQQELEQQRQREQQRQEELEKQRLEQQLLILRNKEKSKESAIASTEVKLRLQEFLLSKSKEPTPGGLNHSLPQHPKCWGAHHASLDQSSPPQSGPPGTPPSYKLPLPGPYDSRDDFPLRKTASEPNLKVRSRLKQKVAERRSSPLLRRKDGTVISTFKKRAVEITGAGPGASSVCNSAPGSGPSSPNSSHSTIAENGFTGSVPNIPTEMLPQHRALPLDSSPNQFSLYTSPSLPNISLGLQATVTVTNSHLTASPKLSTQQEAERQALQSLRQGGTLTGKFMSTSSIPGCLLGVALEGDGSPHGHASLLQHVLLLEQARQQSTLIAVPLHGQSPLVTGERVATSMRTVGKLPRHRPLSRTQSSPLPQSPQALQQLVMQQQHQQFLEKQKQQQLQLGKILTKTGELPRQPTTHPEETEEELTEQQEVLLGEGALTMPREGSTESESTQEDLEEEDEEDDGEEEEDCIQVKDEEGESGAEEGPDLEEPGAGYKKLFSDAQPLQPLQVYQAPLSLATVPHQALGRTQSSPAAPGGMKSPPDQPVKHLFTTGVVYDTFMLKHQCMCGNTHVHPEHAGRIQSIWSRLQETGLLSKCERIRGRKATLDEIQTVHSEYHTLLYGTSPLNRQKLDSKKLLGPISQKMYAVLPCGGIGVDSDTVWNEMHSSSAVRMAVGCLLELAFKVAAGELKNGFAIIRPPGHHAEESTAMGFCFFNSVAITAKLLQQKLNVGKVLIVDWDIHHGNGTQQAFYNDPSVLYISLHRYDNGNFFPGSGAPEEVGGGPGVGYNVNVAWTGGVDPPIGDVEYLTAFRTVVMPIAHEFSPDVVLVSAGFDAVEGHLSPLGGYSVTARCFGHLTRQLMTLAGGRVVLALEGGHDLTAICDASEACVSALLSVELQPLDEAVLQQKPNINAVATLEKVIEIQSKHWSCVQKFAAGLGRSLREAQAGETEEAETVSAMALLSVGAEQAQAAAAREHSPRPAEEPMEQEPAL

[6] = biological target: T2, Histone deacetylase 1; test: Inhibition of HDAC1 (unknown origin) using carboxyfluorescein (FAM)-labeled acetylated peptide as substrate after 17 hrs by fluorescence-based electrophoretic assay
[7] = biological target: T4, Histone deacetylase 3 (Homo sapiens, UniProt O15379); test: Inhibition of HDAC3 (unknown origin) using carboxyfluorescein (FAM)-labeled acetylated peptide as substrate after 17 hrs by fluorescence-based electrophoretic assay
T4 sequence (O15379 whole entry): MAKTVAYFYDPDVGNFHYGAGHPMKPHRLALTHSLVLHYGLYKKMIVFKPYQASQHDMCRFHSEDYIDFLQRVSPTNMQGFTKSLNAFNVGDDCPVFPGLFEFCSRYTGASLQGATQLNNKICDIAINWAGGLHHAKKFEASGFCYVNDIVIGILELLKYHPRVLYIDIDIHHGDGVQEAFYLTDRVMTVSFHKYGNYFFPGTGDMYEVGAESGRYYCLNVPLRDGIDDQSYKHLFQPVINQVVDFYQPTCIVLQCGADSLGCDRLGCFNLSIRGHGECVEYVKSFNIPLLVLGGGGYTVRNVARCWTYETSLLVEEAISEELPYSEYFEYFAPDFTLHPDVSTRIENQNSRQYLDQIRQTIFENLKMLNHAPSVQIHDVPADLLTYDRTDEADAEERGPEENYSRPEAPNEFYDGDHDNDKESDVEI

[8] = biological target: T1, Histone deacetylase 2; test: Inhibition of HDAC2 (unknown origin) using carboxyfluorescein (FAM)-labeled acetylated peptide as substrate after 17 hrs by fluorescence-based electrophoretic assay
[9] = biological target: T5, Polyamine deacetylase HDAC10 (Homo sapiens, UniProt Q969S8); test: Inhibition of HDAC10 (unknown origin)
T5 sequence (Q969S8 whole entry): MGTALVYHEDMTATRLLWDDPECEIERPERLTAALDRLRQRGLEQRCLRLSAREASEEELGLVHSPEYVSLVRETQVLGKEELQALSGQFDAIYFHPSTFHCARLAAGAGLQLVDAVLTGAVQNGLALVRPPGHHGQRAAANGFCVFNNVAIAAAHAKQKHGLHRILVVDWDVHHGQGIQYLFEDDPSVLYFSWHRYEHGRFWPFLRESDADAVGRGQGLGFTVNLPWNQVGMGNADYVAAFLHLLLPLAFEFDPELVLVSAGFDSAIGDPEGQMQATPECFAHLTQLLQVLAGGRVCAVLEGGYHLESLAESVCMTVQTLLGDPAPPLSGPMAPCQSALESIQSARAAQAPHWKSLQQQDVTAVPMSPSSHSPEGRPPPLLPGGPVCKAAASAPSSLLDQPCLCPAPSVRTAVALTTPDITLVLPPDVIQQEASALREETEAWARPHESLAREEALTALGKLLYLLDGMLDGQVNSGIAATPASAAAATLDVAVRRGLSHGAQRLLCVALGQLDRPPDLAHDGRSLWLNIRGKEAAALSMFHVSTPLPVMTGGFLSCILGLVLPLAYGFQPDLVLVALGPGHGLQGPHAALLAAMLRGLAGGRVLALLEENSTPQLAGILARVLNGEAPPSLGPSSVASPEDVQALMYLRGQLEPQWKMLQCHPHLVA

[10] = biological target: T4, Histone deacetylase 3; test: Inhibition of HDAC3 (unknown origin); settings: read-out: Kd(app)
[11] = biological target: T6, Histone deacetylase 8 (Homo sapiens, UniProt Q9BY41); test: Inhibition of HDAC8 (unknown origin); settings: read-out: Kd(app)
T6 sequence (Q9BY41 whole entry): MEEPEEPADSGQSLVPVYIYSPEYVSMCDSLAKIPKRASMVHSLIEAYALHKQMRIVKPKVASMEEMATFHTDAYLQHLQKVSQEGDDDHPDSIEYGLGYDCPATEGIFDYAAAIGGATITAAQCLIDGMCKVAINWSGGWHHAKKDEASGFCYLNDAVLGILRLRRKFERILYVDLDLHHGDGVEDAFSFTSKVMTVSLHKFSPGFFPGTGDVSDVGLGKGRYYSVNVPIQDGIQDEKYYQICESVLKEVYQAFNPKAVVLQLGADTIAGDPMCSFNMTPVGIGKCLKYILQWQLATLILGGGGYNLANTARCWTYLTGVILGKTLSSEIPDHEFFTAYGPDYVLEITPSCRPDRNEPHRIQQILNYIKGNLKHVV

T1 sequence (Q92769 whole entry): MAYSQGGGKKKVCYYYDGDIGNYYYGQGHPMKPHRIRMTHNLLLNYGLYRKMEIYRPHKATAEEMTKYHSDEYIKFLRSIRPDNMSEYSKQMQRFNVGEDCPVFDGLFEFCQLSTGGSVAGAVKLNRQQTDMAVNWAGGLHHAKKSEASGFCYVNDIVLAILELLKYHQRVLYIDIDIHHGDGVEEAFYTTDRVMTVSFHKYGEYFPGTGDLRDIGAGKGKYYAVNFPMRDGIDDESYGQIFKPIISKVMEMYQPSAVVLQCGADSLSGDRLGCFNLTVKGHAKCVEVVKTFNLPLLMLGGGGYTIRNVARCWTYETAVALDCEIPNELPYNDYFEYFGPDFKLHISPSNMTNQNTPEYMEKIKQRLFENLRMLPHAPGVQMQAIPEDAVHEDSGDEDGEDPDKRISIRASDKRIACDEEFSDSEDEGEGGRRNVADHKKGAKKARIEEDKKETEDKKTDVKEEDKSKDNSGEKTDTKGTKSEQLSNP
Histone deacetylase 4, sequence (P56524 whole entry): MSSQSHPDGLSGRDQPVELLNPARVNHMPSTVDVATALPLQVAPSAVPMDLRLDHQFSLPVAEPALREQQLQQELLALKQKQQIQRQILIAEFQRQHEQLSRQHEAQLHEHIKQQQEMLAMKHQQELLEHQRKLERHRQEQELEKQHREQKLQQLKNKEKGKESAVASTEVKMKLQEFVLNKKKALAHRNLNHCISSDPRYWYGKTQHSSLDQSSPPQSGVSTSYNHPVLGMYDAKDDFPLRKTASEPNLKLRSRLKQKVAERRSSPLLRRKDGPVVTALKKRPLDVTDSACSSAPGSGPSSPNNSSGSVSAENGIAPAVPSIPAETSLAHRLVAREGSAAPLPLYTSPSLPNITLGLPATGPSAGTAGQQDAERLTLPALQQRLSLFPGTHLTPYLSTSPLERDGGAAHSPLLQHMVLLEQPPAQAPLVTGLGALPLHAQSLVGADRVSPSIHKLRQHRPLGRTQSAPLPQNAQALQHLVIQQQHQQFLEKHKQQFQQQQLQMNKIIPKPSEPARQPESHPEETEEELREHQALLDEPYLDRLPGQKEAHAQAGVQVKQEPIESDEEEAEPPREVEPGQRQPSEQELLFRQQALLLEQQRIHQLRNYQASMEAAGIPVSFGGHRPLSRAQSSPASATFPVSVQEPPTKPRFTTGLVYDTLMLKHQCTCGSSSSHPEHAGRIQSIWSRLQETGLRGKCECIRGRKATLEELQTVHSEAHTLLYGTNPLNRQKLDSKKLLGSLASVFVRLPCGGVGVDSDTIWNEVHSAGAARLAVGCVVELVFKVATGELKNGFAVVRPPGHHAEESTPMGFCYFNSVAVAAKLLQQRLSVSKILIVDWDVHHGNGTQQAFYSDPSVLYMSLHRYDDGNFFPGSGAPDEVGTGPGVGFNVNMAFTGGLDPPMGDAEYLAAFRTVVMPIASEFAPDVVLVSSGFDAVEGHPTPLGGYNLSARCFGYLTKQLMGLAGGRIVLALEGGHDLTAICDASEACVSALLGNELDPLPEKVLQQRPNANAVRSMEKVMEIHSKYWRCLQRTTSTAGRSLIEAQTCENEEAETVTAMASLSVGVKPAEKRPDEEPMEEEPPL

SMILES: Cc1onc(-c2ccccc2)c1C(=O)NCCCCCNC(=O)CS
IC50 [1]: 10 µM
IC50 [2]: 28 µM
IC50 [3]: 5.7 µM
IC50 [4]: 0.26 µM
IC50 [5]: 15 µM

SMILES: Cc1onc(-c2ccccc2)c1C(=O)NCCCCCNC(=O)[C@@H](C)S
IC50 [1]: > 30 µM
IC50 [2]: > 30 µM
IC50 [3]: > 30 µM
IC50 [4]: 0.28 µM
IC50 [5]: > 30 µM

IC50 [3]: 82.6 µM
IC50 [4]: 4.01 µM
SMILES: COC(=O)[C@@H](Cc1ccccn1)NC(=O)CCCCCCCC(=O)NO

IC50 [3]: 67.3 µM
IC50 [4]: 4.06 µM
SMILES: COC(=O)[C@H](Cc1ccccn1)NC(=O)CCCCCCCC(=O)NO

IC50 [6]: 0.0127 µM
IC50 [7]: 0.19 µM
IC50 [8]: 0.093 µM
SMILES: CC(C)(C)OC(=O)Nc1ccc(-c2cc(C(=O)NCCCCCCC(=O)NO)no2)cc1

Kd ([9]; read-out: Kd(app)): 12.3 µM
Kd [10]: 341 µM
Kd ([2]; read-out: Kd(app)): > 1000 µM
Kd ([3]; read-out: Kd(app)): > 1000 µM
Kd ([4]; read-out: Kd(app)): 10.7 µM
Kd [11]: 235 µM
SMILES: CCCCOc1ccc(CC(=O)NO)cc1 [BUFEXAMAC]

IC50 [9]: > 10 µM
SMILES: O=C(CCCCCCNC(=O)c1cnc(N(c2ccccc2)c2ccccc2)nc1)NO [RICOLINOSTAT]
